Data taken from patent EP4792817A1, “COMPOUND AND METHOD FOR TREATING AND/OR […] CANCER OR PR[…] THEREOF” (EnKang Pharmaceuticals (Guangzhou), Ltd., priority 2023, dated 2025).
Values after ≈ are worked out from the molar mass of the structure shown. Read-outs that look alike come from different tables or passages of the source.

Experiments:
[1] = for plasma drug concentrations above the LLOQ: topical gel 0.008-0.06 mg/cm^2, LLOQ 0.02 ng/mL
[2] = system: TE.354.T cells (human cutaneous basal cell carcinoma); experiment: cells; settings: 72 h, read-out: half-maximal inhibitory concentration
Procedure: The percent inhibition rate of each concentration group was calculated using the following formula: [Inhibition rate = (1 - T/C) × 100%], and the half-maximal inhibitory concentration (IC50) was calculated.

SCL-1 cells = settings: 48 hrs
Procedure: (§1) The experimental procedures were as follows: The cells were subcultured in a complete medium containing 10% FBS in an incubator at 37 °C with 5% CO2 and saturated humidity. The cell density was adjusted to (3-5) × 10^4 cells/mL using a complete medium containing 10% FBS. The cell suspension was added to the wells of a 96-well culture plate at 100 µL/well, and the plate was incubated in an incubator at 37 °C with 5% CO2 and saturated humidity overnight (for about 16-24 hrs). Various dose groups of the test substance and a solvent control group were set. On the next day, the original culture medium was discarded. Subsequently, 20% FBS-containing complete medium was added at 100 µL/well, and the test substance or solvent in FBS-free medium was then added at 100 µL/well, resulting in a final FBS concentration of 10%. […]
(§2) After incubation for 48 hrs under the experimental conditions, the supernatant was discarded, and 110 µL of CCK-8 working solution (100 µL of 10% FBS-containing complete medium and 10 µL of CCK-8 solution) were added to each well. The cells were further incubated for 4 hrs, and the optical density value at a wavelength of 450 nm (A450) was then measured for each well using a microplate reader. […]

A431 cells = settings: 48 hrs
Procedure: as §1, §2

COLO-16 cells [3] = experiment: cells; settings: for IC50: test concentrations in ng/mL
Procedure: The experimental procedures were as follows: The cells were subcultured in a complete medium containing 10% FBS in an incubator at 37 °C with 5% CO2 and saturated humidity. The cell density was adjusted to (3-5) × 10^4 cells/mL using a complete medium containing 10% FBS. The cell suspension was added to the wells of a 96-well culture plate at 100 µL/well, and the plate was incubated in an incubator at 37 °C with 5% CO2 and saturated humidity overnight (for about 16-24 hrs). Various dose groups of the test substance and a solvent control group were set. On the next day, the original culture medium was discarded. Subsequently, 20% FBS-containing complete medium was added at 100 µL/well, and the test substance or solvent in FBS-free medium was then added at 100 µL/well, resulting in a final FBS concentration of 10%. Meanwhile, a negative control group was set: each well received 100 µL of 20% FBS-containing complete medium + 100 µL of incomplete medium containing cells, resulting in a final FBS concentration of 10%. A zero adjustment group (background) was also set: 200 µL of the culture medium alone (100 µL of 20% FBS-containing complete medium + 100 µL of incomplete medium), without drugs and cells. For each concentration group, four replicate wells were set.
After incubation for 48 hrs under the experimental conditions, the supernatant was discarded, and 110 µL of CCK-8 working solution (100 µL of 10% FBS-containing complete medium and 10 µL of CCK-8 solution) were added to each well. The cells were further incubated for 4 hrs, and the optical density value at a wavelength of 450 nm (A450) was then measured for each well using a microplate reader. The average value for the wells of each treatment group (T) was compared with the average value for the negative control wells (C). The percent inhibition rate of each concentration group was calculated using the following formula: [Inhibition rate = (1 - T/C) × 100%], and the half-maximal inhibitory concentration (IC50) was calculated.

[4] = 20 °C
[5] = system: human liver cancer HepG2 cells; settings: Patent No. CN 104736157 A; cited from earlier work
COLO-16 cells [6] = settings: drug substance 0.8 mg/kg; intragastric administration, once every other day; after 21 days of treatment
[7] = not given; remark: listed apart in the source

CO[C@H]1[C@H](O)[C@H](O[C@H]2CC[C@@]3(C)[C@H](CC[C@@H]4[C@@H]3CC[C@]3(C)[C@@H](C5=CC(=O)OC5)CC[C@]43O)C2)O[C@@H](C)[C@@H]1O [17β-neriifolin]
plasma drug concentrations above the LLOQ ([1]; four Australian subjects): 0.021 to 0.101 ng/mL
plasma drug concentrations above the LLOQ ([1]; seven Chinese subjects): 0.022 to 0.106 ng/mL
dose dependence of systemic exposure ([1]; topical gel, 0.008-0.06 mg/cm^2 dose range): No dose-dependent increase
IC50 [2]: ~0.01 µg/mL (≈ 0.0187 µM)
growth inhibitory effects (SCL-1 cells): strong growth inhibitory effects
growth inhibitory effects (A431 cells): strong growth inhibitory effects
Inhibition rate% (COLO-16 cells [3]; 2.5 ng/mL, 48 hrs): 6.9%
Inhibition rate% (COLO-16 cells [3]; 25 ng/mL, 48 hrs): 72.7%
Inhibition rate% (COLO-16 cells [3]; 50 ng/mL, 48 hrs): 77.9%
Inhibition rate% (COLO-16 cells [3]; 100 ng/mL, 48 hrs): 89.5%
IC50 (COLO-16 cells [3]; 48 hrs): 12.28
inhibition at 0.0025 µg/mL (COLO-16 cells [3]; Homo sapiens, 48 h, read-out: Inhibition rate%, 2.5 ng/mL): 9%
inhibition at 0.025 µg/mL (COLO-16 cells [3]; Homo sapiens, 48 h, read-out: Inhibition rate%, 25 ng/mL): 57.3%
inhibition at 0.05 µg/mL (COLO-16 cells [3]; Homo sapiens, 48 h, read-out: Inhibition rate%, 50 ng/mL): 74.5%
inhibition at 0.1 µg/mL (COLO-16 cells [3]; Homo sapiens, 48 h, read-out: Inhibition rate%, 100 ng/mL): 85.3%
IC50 (COLO-16 cells [3]; Homo sapiens, 48 h): 0.0186 µg/mL (≈ 0.0348 µM)
Dissolution behavior ([4]; Ethanol concentration 20%, sample concentration 8 mg/g): Dissolved
Dissolution behavior ([4]; Ethanol concentration 45%, sample concentration 20 mg/g): Dissolved
Dissolution behavior ([4]; Ethanol concentration 50%, sample concentration 24 mg/g): Dissolved
Dissolution behavior ([4]; Ethanol concentration 66%, sample concentration 32 mg/g): Dissolved
Dissolution behavior ([4]; Ethanol concentration 75%, sample concentration 40 mg/g): Dissolved
Dissolution behavior ([4]; Ethanol concentration 100%, sample concentration 50 mg/g): Dissolved
cell cycle arrest and apoptosis [5]: induce cell cycle arrest and apoptosis
tumor inhibition rate (COLO-16 cells [6]): greater than 80%
Saturation solubility (10% ethanol): 160 µg/mL
Saturation solubility (10% propylene glycol): 80 µg/mL
Saturation solubility (20% ethanol): 380 µg/mL
Saturation solubility (20% propylene glycol): 100 µg/mL
Saturation solubility (30% ethanol): 910 µg/mL
Saturation solubility (30% propylene glycol): 420 µg/mL
Saturation solubility (40% ethanol): 2170 µg/mL
Saturation solubility (40% propylene glycol): 750 µg/mL
solubility [7]: ~70 µg/mL (≈ 131 µM)
